From DBAASP
Values after ≈ are worked out from the molar mass of the structure shown. Values joined by “and” are separate entries in the source; they are usually repeats but may differ in a detail not shown here. Equal values may be shown once.

Legend:
Test in all cases: ≥ marks a high value that may be exact or a test limit, other limits are often not marked, values filed in µg/mL are converted to µM
[1] = system: Candida albicans ATCC 2002
[2] = system: Staphylococcus aureus ATCC 2592
[3] = system: Escherichia coli ATCC 25922
[4] = system: Pseudomonas aeruginosa ATCC 27853
[5] = system: Enterococcus faecalis ATCC 29212
[6] = system: Staphylococcus aureus ATCC 29213
Acinetobacter baumannii = system: Acinetobacter baumannii
Staphylococcus aureus = system: Staphylococcus aureus
Escherichia coli B = system: Escherichia coli B
Pseudomonas aeruginosa = system: Pseudomonas aeruginosa
Bacillus subtilis 168 = system: Bacillus subtilis 168
[7] = system: Pseudomonas aeruginosa ATCC 9027
[8] = system: Klebsiella pneumoniae ATCC 700603
[9] = system: Staphylococcus aureus ATCC 25923
[10] = system: Salmonella enterica subsp. enterica serovar Typhimurium C77-31
Escherichia coli UB1005 = system: Escherichia coli UB1005
[11] = system: Staphylococcus epidermidis ATCC 12228
[12] = system: Acinetobacter baumannii ATCC 19606
[13] = system: Salmonella enterica subsp. enterica serovar Typhimurium ATCC 14028
[14] = system: Klebsiella pneumoniae ATCC 13883
Klebsiella pneumoniae = system: Klebsiella pneumoniae
Escherichia coli = system: Escherichia coli

Compound	MIC [3]	MIC [6]	MIC (Acinetobacter baumannii)	MIC (Staphylococcus aureus)	MIC (Pseudomonas aeruginosa)	MIC [9]	MIC [10]	MIC (Escherichia coli UB1005)	MIC [11]	further results
CC[C@H](C)[C@H](NC(=O)[C@H](CCCN=C(N)N)NC(=O)[C@@H](NC(=O)[C@@H]1CCCN1C(=O)[C@@H](NC(=O)[C@@H](NC(=O)[C@H](CCC(N)=O)NC(=O)[C@@H]1CCCN1C(=O)[C@@H](NC(=O)[C@@H](NC(=O)[C@H](Cc1cnc[nH]1)NC(=O)[C@@H]1CCCN1C(=O)[C@@H]1CCCN1C(=O)[C@@H](NC(=O)CNC(=O)[C@H](Cc1c[nH]c2ccccc12)NC(=O)[C@H](C)NC(=O)[C@H](CCCCN)NC(=O)[C@H](C)N)[C@@H](C)CC)C(C)C)[C@@H](C)CC)[C@@H](C)CC)C(C)C)C(C)C)C(=O)N[C@@H](CCCN=C(N)N)C(=O)N1CCC[C@H]1C(=O)N[C@@H](CC(C)C)C(=O)NCC(=O)NCC(=O)N[C@@H](CC(N)=O)C(=O)N[C@H](C(=O)O)C(C)C [AKAWGIPPHVIPQIVPVRIRPLGGNV]	8.98 µM (≈ 25 µg/mL)	–	–	–	–	–	–	–	–	MIC [1]: 8.98 µM (≈ 25 µg/mL); MIC [2]: 1.15 µM (≈ 3.2 µg/mL)
CC(C)C[C@H](NC(=O)[C@H](CC(C)C)NC(=O)[C@H](CCCN=C(N)N)NC(=O)[C@H](CCCCN)NC(=O)[C@H](CCCN=C(N)N)NC(=O)[C@H](CC(C)C)NC(=O)[C@H](CCCCN)NC(=O)[C@H](CCCN=C(N)N)NC(=O)[C@H](CC(C)C)NC(=O)[C@@H](N)CS)C(=O)N[C@@H](CS)C(=O)O [CLRKLRKRLLC]	17.1 µM (≈ 24 µg/mL)	> 22.8 µM	22.8 µM (≈ 32 µg/mL)	–	–	–	–	–	–	MIC [4]: > 22.8 µM; MIC [5]: > 22.8 µM
CC[C@H](C)[C@H](NC(=O)[C@H](CC(C)C)NC(=O)[C@H](CCCCN)NC(=O)CNC(=O)[C@H](CC(C)C)NC(=O)[C@@H](NC(=O)[C@H](CCCCN)NC(=O)[C@H](CO)NC(=O)[C@H](Cc1c[nH]c2ccccc12)NC(=O)[C@H](CCSC)NC(=O)CN)[C@@H](C)CC)C(=O)N[C@@H](CCCN=C(N)N)C(N)=O [GMWSKILGKLIR]	–	–	–	9.2 µM (≈ 12.9 µg/mL)	26.3 µM (≈ 36.8 µg/mL)	–	–	–	–	MIC (Escherichia coli B): 3.7 µM (≈ 5.18 µg/mL); MIC (Bacillus subtilis 168): 0.9 µM (≈ 1.26 µg/mL)
CC[C@H](C)[C@H](NC(=O)[C@H](CC(C)C)NC(=O)[C@@H]1CCCN1C(=O)CNC(=O)[C@H](CC(C)C)NC(=O)[C@@H](NC(=O)[C@H](CCCCN)NC(=O)[C@H](CO)NC(=O)[C@H](Cc1c[nH]c2ccccc12)NC(=O)[C@H](CCSC)NC(=O)CN)[C@@H](C)CC)C(=O)N[C@@H](CCCN=C(N)N)C(N)=O [GMWSKILGPLIR]	–	–	–	> 100 µM	> 100 µM	–	–	–	–	MIC (Escherichia coli B): 30 µM (≈ 41.1 µg/mL); MIC (Bacillus subtilis 168): 3.6 µM (≈ 4.93 µg/mL)
CC[C@H](C)[C@H](N)C(=O)N[C@H](C(=O)N[C@H](C(=O)N[C@@H](CCCCN)C(=O)N[C@@H](CO)C(=O)N[C@@H](CC(C)C)C(=O)NCC(=O)N[C@@H](CCCCN)C(=O)N[C@@H](Cc1ccccc1)C(=O)N[C@@H](CC(C)C)C(=O)N[C@@H](CCCCN)C(=O)N[C@@H](CC(N)=O)C(=O)N[C@H](C(=O)NCC(=O)NCC(=O)N[C@@H](Cc1ccccc1)C(=O)N[C@@H](C)C(=O)NCC(=O)O)C(C)C)[C@@H](C)CC)C(C)C [IVIKSLGKFLKNVGGFAG]	> 64 µM	–	≥ 64 µM	–	–	> 64 µM	–	–	–	MIC [7]: > 64 µM; MIC [8]: > 64 µM
CC(C)C[C@H](NC(=O)[C@H](CCCN=C(N)N)NC(=O)[C@H](CC(C)C)NC(=O)[C@H](CCCN=C(N)N)NC(=O)[C@@H](NC(=O)[C@H](CCCCN)NC(=O)[C@H](CC(C)C)NC(=O)[C@H](CCCN=C(N)N)NC(=O)[C@H](CC(C)C)NC(=O)[C@H](CCCN=C(N)N)NC(=O)[C@@H](N)CC(C)C)[C@@H](C)O)C(=O)N[C@@H](CCCCN)C(N)=O [LRLRLKTRLRLK]	4 µM (≈ 6.26 µg/mL)	32 µM (≈ 50.1 µg/mL)	–	–	–	32 µM (≈ 50.1 µg/mL)	16 µM (≈ 25 µg/mL)	4 µM (≈ 6.26 µg/mL)	64 µM (≈ 100 µg/mL)	–
CC(C)C[C@H](NC(=O)[C@H](CCCN=C(N)N)NC(=O)[C@H](CC(N)=O)NC(=O)[C@H](C)NC(=O)[C@H](CCCN=C(N)N)NC(=O)[C@H](CC(C)C)NC(=O)[C@H](Cc1c[nH]c2ccccc12)NC(=O)[C@H](CC(C)C)NC(=O)[C@H](CCCN=C(N)N)NC(=O)[C@H](CCCN=C(N)N)NC(=O)[C@@H](N)CC(C)C)C(N)=O [LRRLWLRANRL]	128 µM (≈ 188 µg/mL)	128 µM (≈ 188 µg/mL)	–	–	–	–	≥ 128 µM	–	> 128 µM	MIC [4]: > 128 µM; MIC [5]: > 128 µM
CC[C@H](C)[C@H](NC(=O)[C@H](CC(C)C)NC(=O)[C@H](Cc1cnc[nH]1)NC(=O)CNC(=O)[C@H](CC(C)C)NC(=O)[C@@H](NC(=O)[C@H](CCCCN)NC(=O)[C@H](CO)NC(=O)[C@H](Cc1c[nH]c2ccccc12)NC(=O)[C@@H](N)CCSC)[C@@H](C)CC)C(=O)N[C@@H](CCCN=C(N)N)C(N)=O [MWSKILGHLIR]	–	–	–	45 µM (≈ 60.9 µg/mL)	> 100 µM	–	–	–	–	MIC (Escherichia coli B): ≥ 50 µM; MIC (Bacillus subtilis 168): 5 µM (≈ 6.76 µg/mL)
CC[C@H](C)[C@H](NC(=O)[C@H](CCCN=C(N)N)NC(=O)[C@H](CCCN=C(N)N)NC(=O)[C@H](CC(C)C)NC(=O)[C@H](CCCN=C(N)N)NC(=O)[C@H](Cc1c[nH]c2ccccc12)NC(=O)[C@H](CCCN=C(N)N)NC(=O)[C@@H](NC(=O)[C@H](CCCN=C(N)N)NC(=O)[C@H](Cc1c[nH]c2ccccc12)NC(=O)[C@H](CCCN=C(N)N)NC(=O)[C@H](CC(C)C)NC(=O)[C@H](CCCN=C(N)N)NC(=O)[C@H](CCCN=C(N)N)NC(=O)[C@H](Cc1ccccc1)NC(=O)[C@@H](N)CCCN=C(N)N)[C@@H](C)O)C(N)=O [RFRRLRWRTRWRLRRI]	4 µM and 8 µM	4 µM and 8 µM	–	–	–	–	4 µM (≈ 9.53 µg/mL)	2 µM (≈ 4.77 µg/mL)	4 µM (≈ 9.53 µg/mL)	MIC [5]: 2 µM (≈ 4.77 µg/mL)
CC(C)C[C@H](NC(=O)[C@H](CCCN=C(N)N)NC(=O)[C@H](CCCN=C(N)N)NC(=O)[C@H](C)NC(=O)[C@H](Cc1c[nH]c2ccccc12)NC(=O)CNC(=O)[C@H](CCCN=C(N)N)NC(=O)[C@@H](N)CCCN=C(N)N)C(=O)N[C@@H](Cc1ccccc1)C(=O)N[C@@H](Cc1ccccc1)C(=O)N[C@@H](C)C(=O)N[C@@H](Cc1ccc(O)cc1)C(=O)NCC(=O)N[C@@H](CCCN=C(N)N)C(=O)N[C@@H](CCCN=C(N)N)C(N)=O [RRGWARRLFFAYGRR]	–	–	2.6 µM (≈ 5.12 µg/mL)	–	–	> 30 µM	–	–	–	MIC [12]: 1.7 µM and 1.5 µM; MIC [13]: 1.5 µM and 2.2 µM; MIC [14]: 5.4 µM and 8.6 µM; MIC (Klebsiella pneumoniae): 1.2 µM (≈ 2.36 µg/mL)
CC(C)C[C@H](NC(=O)[C@H](CCCN=C(N)N)NC(=O)[C@H](CCCCN)NC(=O)[C@H](CCCN=C(N)N)NC(=O)[C@@H](NC(=O)[C@H](Cc1c[nH]c2ccccc12)NC(=O)[C@H](CCCCN)NC(=O)[C@H](CCCN=C(N)N)NC(=O)[C@H](CC(C)C)NC(=O)[C@H](Cc1c[nH]c2ccccc12)NC(=O)[C@@H](N)CCCN=C(N)N)[C@@H](C)O)C(=O)N[C@@H](CCCCN)C(N)=O [RWLRKWTRKRLK]	16 µM (≈ 27.6 µg/mL)	64 µM (≈ 110 µg/mL)	–	–	–	32 µM (≈ 55.2 µg/mL)	≥ 64 µM	16 µM (≈ 27.6 µg/mL)	16 µM (≈ 27.6 µg/mL)	–
CC(C)C[C@H](NC(=O)[C@@H]1CCCN1C(=O)[C@H](CCCN=C(N)N)NC(=O)[C@H](Cc1ccc(O)cc1)NC(=O)[C@@H](NC(=O)[C@@H]1CCCN1C(=O)[C@H](CCCN=C(N)N)NC(=O)[C@H](Cc1ccc(O)cc1)NC(=O)[C@@H]1CCCN1C(=O)[C@@H]1CCCN1C(=O)[C@@H]1CCCN1C(=O)[C@H](CCCN=C(N)N)NC(=O)[C@H](Cc1ccc(O)cc1)NC(=O)[C@@H](NC(=O)[C@H](CC(N)=O)NC(=O)[C@@H](N)CO)C(C)C)C(C)C)C(=O)N[C@@H](CCCN=C(N)N)C(=O)N[C@@H](CCCN=C(N)N)C(=O)N1CCC[C@H]1C(=O)NCC(=O)N[C@@H](Cc1ccc(O)cc1)C(=O)N[C@@H](CCCN=C(N)N)C(=O)N1CCC[C@H]1C(N)=O [SNVYRPPPYRPVYRPLRRPGYRP]	1 µM (≈ 2.86 µg/mL)	2 µM (≈ 5.71 µg/mL)	2 µM (≈ 5.71 µg/mL)	32 µM (≈ 91.4 µg/mL)	–	–	–	–	–	MIC [12]: 2 µM (≈ 5.71 µg/mL); MIC (Escherichia coli): 2 µM (≈ 5.71 µg/mL)
CC[C@H](C)[C@H](NC(=O)[C@H](CCCCN)NC(=O)[C@H](Cc1c[nH]c2ccccc12)NC(=O)[C@H](CCCCN)NC(=O)[C@@H](NC(=O)[C@H](CCCCN)NC(=O)[C@H](Cc1c[nH]c2ccccc12)NC(=O)[C@H](CCCCN)NC(=O)[C@@H](NC(=O)[C@H](CCCCN)NC(=O)[C@@H](N)Cc1c[nH]c2ccccc12)[C@@H](C)CC)[C@@H](C)CC)C(=O)N[C@@H](CCCCN)C(N)=O [WKIKWKIKWKIK]	2 µM (≈ 3.37 µg/mL)	2 µM (≈ 3.37 µg/mL)	1.41 µM (≈ 2.38 µg/mL)	2 µM (≈ 3.37 µg/mL)	4 µM (≈ 6.74 µg/mL)	2 µM (≈ 3.37 µg/mL)	2 µM (≈ 3.37 µg/mL)	2 µM (≈ 3.37 µg/mL)	2 µM (≈ 3.37 µg/mL)	MIC (Escherichia coli): 2 µM (≈ 3.37 µg/mL)
